Data from paper PMC2801607 (Bioorganic & medicinal chemistry letters, 2009).
Like-named read-outs stand apart in the source and are kept apart here.

Experiments:
[1] = target: Mycobacterium tuberculosis phosphatase PtpA (Mycobacterium tuberculosis, UniProt P9WIA1); test: PtpA continuous inhibition assay with pNPP substrate; format: biochemical; settings: PtpA dose-response curve, variable slope (GraphPad Prism)
Mtb PtpB [2] = target: Mtb PtpB (Mycobacterium tuberculosis, UniProt I6WXK4); test: biochemical; format: biochemical
Mtb PtpB [3] = test: biochemical; format: biochemical, Mycobacterium tuberculosis
PTP1B = target: T1, PTP1B (Homo sapiens, UniProt P18031); test: Selectivity panel: PTP1B inhibition; format: biochemical
T1 sequence (P18031 1-435): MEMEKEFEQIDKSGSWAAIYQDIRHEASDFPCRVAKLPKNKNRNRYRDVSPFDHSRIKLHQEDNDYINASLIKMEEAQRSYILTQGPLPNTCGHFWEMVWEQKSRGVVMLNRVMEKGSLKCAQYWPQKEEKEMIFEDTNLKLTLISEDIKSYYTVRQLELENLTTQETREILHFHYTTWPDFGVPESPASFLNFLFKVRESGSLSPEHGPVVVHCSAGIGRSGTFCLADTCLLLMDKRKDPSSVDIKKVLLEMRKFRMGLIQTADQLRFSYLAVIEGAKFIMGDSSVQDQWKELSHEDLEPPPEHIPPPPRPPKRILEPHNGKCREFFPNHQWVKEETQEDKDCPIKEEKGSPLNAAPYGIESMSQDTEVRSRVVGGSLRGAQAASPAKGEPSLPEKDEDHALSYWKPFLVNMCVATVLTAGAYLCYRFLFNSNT

Tc-Ptp = target: T2, Tc-Ptp (Homo sapiens, UniProt P17706); test: Selectivity panel: Tc-Ptp inhibition; format: biochemical
T2 sequence (P17706 1-415): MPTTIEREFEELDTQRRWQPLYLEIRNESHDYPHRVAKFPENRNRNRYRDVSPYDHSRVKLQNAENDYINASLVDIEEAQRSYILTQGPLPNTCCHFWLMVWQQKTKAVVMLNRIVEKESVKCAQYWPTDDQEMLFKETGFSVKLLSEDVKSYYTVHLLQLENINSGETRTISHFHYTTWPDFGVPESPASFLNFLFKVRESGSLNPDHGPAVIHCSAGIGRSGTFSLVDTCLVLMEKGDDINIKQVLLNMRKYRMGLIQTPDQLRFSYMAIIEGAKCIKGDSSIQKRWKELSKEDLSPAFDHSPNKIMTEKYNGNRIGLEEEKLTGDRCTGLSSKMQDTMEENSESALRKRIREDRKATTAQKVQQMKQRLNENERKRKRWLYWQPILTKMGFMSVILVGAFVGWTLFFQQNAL

VHR = VHR (Homo sapiens, UniProt P51452); test: Selectivity panel: VHR inhibition; format: biochemical
CD45 = target: T3, CD45 (Homo sapiens, UniProt P08575); test: Selectivity panel: CD45 inhibition; format: biochemical
T3 sequence (P08575 26-1306): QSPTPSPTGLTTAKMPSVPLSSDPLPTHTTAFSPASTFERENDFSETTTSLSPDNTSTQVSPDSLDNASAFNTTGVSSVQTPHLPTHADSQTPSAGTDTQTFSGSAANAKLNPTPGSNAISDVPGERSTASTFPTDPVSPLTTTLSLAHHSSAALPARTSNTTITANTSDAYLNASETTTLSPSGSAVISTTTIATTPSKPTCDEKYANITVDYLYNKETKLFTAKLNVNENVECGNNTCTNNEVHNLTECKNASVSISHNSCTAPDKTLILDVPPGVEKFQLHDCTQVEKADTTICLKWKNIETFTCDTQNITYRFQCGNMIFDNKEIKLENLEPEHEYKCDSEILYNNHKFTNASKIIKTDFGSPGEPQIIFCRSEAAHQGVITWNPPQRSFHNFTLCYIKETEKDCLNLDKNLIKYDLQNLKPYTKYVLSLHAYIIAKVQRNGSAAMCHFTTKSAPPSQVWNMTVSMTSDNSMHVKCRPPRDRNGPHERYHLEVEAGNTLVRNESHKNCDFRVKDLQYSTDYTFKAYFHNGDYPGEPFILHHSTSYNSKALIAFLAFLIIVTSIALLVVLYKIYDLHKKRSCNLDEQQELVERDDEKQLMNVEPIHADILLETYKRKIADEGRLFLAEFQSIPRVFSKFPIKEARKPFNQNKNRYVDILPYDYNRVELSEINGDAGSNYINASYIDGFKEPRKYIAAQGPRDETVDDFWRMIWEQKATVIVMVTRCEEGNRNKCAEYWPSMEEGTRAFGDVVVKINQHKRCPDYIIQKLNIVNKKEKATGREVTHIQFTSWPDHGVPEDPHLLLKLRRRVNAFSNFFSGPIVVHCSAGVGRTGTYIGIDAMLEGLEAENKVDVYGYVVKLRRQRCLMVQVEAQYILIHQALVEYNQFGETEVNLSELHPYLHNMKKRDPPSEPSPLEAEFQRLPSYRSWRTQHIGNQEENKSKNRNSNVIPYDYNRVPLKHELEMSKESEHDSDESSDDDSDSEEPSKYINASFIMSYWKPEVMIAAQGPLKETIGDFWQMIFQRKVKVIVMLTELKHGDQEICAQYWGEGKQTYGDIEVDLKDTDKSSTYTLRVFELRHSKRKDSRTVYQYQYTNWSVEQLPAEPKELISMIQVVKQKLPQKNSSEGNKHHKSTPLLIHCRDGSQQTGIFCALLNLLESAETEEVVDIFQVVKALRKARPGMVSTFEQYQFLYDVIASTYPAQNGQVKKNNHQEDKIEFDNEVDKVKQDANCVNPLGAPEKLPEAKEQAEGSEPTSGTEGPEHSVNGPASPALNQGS

LAR = LAR (Homo sapiens, UniProt P10586); test: Selectivity panel: LAR inhibition; format: biochemical
[4] = tested on: panel of human tyrosine and dual-specificity phosphatases; format: biochemical

Mtb PtpB (Mycobacterium tuberculosis, UniProt I6WXK4), sequence (I6WXK4 whole entry, looked up): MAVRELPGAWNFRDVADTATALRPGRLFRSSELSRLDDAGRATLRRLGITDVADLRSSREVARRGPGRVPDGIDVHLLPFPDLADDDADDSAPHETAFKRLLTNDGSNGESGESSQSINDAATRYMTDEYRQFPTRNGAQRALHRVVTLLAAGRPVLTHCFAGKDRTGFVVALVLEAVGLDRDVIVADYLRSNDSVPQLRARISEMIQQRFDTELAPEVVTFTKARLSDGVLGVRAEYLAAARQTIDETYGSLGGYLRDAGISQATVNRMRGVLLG
Mycobacterium tuberculosis phosphatase PtpA, sequence (P9WIA1 whole entry): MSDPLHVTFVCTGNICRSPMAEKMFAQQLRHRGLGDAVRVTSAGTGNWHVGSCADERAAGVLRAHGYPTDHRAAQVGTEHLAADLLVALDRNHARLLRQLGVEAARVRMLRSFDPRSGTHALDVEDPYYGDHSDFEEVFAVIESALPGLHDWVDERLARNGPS
VHR, sequence (P51452 whole entry): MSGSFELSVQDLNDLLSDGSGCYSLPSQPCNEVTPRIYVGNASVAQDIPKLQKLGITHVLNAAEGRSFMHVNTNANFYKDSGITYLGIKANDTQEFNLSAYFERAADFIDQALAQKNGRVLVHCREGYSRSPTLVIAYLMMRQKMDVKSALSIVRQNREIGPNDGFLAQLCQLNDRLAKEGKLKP
LAR, sequence (P10586 30-1907): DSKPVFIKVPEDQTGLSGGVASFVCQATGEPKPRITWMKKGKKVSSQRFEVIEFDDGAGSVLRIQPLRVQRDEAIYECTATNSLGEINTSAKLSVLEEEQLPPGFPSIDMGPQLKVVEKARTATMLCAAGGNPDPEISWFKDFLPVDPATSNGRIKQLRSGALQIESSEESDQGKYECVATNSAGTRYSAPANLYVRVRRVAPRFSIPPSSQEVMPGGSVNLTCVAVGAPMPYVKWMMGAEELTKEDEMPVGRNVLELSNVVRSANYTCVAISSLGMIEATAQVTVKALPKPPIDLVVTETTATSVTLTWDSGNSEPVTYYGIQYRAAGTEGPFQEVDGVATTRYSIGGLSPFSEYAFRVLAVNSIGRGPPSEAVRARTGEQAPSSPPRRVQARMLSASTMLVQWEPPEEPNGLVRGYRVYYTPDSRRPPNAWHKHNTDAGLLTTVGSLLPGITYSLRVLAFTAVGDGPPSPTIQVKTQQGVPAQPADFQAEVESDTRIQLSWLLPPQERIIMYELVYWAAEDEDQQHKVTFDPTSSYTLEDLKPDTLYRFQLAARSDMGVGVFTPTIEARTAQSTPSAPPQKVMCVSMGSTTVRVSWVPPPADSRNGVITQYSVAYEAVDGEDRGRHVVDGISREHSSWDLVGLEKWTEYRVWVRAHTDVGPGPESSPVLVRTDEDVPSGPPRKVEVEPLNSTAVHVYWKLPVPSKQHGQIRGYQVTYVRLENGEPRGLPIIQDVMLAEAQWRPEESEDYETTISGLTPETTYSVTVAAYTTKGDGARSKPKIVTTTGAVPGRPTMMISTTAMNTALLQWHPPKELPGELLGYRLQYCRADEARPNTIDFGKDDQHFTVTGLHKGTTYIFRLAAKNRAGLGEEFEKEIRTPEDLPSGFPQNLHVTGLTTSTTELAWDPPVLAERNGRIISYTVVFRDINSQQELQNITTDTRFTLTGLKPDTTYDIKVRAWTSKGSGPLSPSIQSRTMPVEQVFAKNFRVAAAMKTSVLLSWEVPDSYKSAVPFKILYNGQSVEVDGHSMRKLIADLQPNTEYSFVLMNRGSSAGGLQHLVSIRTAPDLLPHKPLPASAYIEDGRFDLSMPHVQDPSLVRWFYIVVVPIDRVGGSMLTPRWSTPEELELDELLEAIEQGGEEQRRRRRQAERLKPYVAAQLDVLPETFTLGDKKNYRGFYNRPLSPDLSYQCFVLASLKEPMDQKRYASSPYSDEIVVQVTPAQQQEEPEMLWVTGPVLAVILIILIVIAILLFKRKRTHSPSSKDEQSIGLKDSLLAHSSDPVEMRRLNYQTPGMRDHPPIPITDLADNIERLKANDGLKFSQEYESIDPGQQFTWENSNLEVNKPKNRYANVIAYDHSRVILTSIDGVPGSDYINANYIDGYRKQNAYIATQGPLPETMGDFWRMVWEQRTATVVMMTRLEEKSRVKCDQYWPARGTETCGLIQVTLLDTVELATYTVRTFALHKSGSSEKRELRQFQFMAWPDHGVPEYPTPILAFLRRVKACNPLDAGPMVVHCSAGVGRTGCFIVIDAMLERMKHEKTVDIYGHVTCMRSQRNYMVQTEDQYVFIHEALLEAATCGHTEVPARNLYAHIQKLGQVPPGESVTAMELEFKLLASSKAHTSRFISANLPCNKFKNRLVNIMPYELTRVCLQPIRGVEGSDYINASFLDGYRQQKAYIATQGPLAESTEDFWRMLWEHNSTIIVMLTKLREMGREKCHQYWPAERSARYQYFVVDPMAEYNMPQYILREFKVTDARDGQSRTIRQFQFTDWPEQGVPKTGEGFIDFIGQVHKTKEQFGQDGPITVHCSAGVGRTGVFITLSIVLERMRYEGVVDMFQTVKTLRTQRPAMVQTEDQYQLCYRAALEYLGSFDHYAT

| Compound | Hill coefficient h [1] | Ki (Mtb PtpB [2]) | Ki (Mtb PtpB [2]; PtpB) | Selectivity (Mtb PtpB [3]) | Selectivity (PTP1B) | Selectivity (Tc-Ptp) | Selectivity (VHR) | Selectivity (CD45) | Selectivity (LAR) | Selectivity for PtpA versus panel of phosphatases [4] |
| --- | --- | --- | --- | --- | --- | --- | --- | --- | --- | --- |
| O=C(Nc1cc(C(F)(F)F)c(Br)c(C(F)(F)F)c1)c1ccc(C(F)(F)P(=O)(O)O)cc1 [Compound 38] | −1.0 ± 0.1 | > 100 µM | did not inhibit | >70 | >70 | >70 | >70 | >70 | >70 | > 70 fold |
| O=C(Nc1ccc(C(F)(F)P(=O)(O)O)cc1)Nc1cc(C(F)(F)F)cc(C(F)(F)F)c1 [Compound 43] | −1.1 ± 0.2 | – | – | – | – | – | – | – | – | – |
